Reference: US9670261B2 (Sanofi, priority 2012, dated 2017)
*1 amine or outer side, *2 acyl side, *3 side chain or, on linkers, in order; H or OH if unused. Where a SMILES comes first, the peptide text is derived from it. Side-chain parts run from the residue outwards. [ ]: non-standard residue; d: D form. The star is where a group is joined. γGlu = O=C(O)[C@H](CCC(=O)[*:2])N[*:1]; Stearoyl = CCCCCCCCCCCCCCCCCC(=O)*; Aib = CC(C)(N)C(=O)O

What was measured:
[1] = Pharmacokinetic testing in mice, s.c.; conditions: mouse, plasma, sc, 1 mg/kg
Method: Mice were dosed 1 mg/kg subcutaneously (s.c.). The mice were sacrified and blood samples were collected after 0.25, 0.5, 1, 2, 4, 8, 16 and 24 hours post application. Plasma samples were analyzed after protein precipitation via liquid chromatography mass spectrometry (LC/MS). PK parameters and half-life were calculated using WinonLin Version 5.2.1 (non-compartment model).

[2] = Chemical stability in solution, 7 days at 25° C. (% remaining peptide); conditions: % remaining peptide after 7 days at 25° C.
Method: After that time course, the sample was centrifuged for 20 min at 4000 rpm and the supernatant was analysed with HPLC-UV. For determination of the amount of the remaining peptide, the peak areas of the target compound at t0 and t7 were compared, resulting in “% remaining peptide”, following the equation % remaining peptide=[(peak area peptide t7)×100]/peak area peptide t0.
The chemical stability is expressed as “% remaining peptide”.

[3] = test system: non-fasted female diabetic dbdb-mice; test: Glucose lowering in non-fasted female diabetic dbdb-mice; assay type: in vivo; conditions: 3 μg/kg s.c., at 240 min; baseline 20-22 mmol/l
Text: Female diabetic dbdb-mice of mean non-fasted glucose value of 20-22 mmol/l and a body weight of 42 g+/−0.6 g (SEM) were used. Mice were individually marked and were adapted to housing conditions for at least one week.
3-5 days prior to study start mice were assigned to groups and cages (4 mice per cage, 8 per group) according to their non-fasted glucose values to ensure even distribution of lower and higher values between groups (stratification). On the study day, mice were weighed and dosed (t=0). Immediately prior to compound administration feed was removed while water remained available, and a first blood sample at a tail incision was drawn (baseline). Further blood samples were drawn at the tail incision at 30, 60, 90, 120, 240, 360, and 480 min.
Statistical analyses are performed with Everstat Version 6.0 based on SAS by 2-way-ANOVA on repeated measures, followed by Dunnett's post-hoc test against vehicle-control. Differences are considered statistically significant at the p<0.05 level.
Female dbdb-mice, received 3 μg/kg of SEQ ID NO: 14, SEQ ID NO: 21 or phosphate buffered saline (vehicle control) subcutaneously, at time 0 min.

[4] = molecular target: T1, human GLP-1 receptor (Homo sapiens, UniProt P43220); test: cAMP response (HTRF) of HEK-293 cells stably expressing human GLP-1 receptor; assay type: cell-based; conditions: Table 7; cAMP formation; read-out: EC50 hGLP-1 R
T1 construct: expressed in transfected cells
T1 sequence (P43220 24-463): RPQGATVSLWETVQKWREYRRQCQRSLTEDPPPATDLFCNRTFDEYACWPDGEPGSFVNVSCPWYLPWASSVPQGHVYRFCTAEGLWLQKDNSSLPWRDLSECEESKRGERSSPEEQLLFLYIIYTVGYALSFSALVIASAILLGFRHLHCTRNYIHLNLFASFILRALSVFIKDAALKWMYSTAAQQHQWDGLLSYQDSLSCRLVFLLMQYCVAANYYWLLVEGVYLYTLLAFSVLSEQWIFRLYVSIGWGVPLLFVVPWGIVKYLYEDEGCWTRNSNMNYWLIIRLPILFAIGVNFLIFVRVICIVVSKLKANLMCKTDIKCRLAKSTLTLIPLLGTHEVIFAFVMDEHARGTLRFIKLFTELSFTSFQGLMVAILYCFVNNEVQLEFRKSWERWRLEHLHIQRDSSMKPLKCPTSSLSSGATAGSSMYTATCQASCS
Procedure, shortened: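 Stably transfected HEK-293 cells, accutase-harvested; assay buffer 1×HBSS/20 mM HEPES/0.1% BSA/2 mM IBMX; 400000 cells/ml; compound 30 min, RT; cAMP by HTRF kit.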

[5] = Solubility testing in buffer (HPLC-UV); conditions: buffer
[6] = test system: female diabetic dbdb-mice; test: Glucose, HbA1c and oral glucose tolerance in diabetic dbdb-mice, chronic treatment (method 4); assay type: in vivo
Method: 8 week old, female diabetic dbdb-mice of mean non-fasted glucose value of 14.5 mmol/l and a body weight of 37-40 g were used. Mice were individually marked and were adapted to housing conditions for at least one week.
7 days prior to study start, baseline values for non-fasted glucose and HbA1c were determined, 5 days prior to study start, mice were assigned to groups and cages (5 mice per cage, 10 per group) according to their HbA1c values to ensure even distribution of lower and higher values between groups (stratification).
Mice were treated for 4 weeks, by once daily subcutaneous administration 3 hours prior to the dark phase (6 pm to 6 am). Blood samples from a tail tip incision were obtained for HbA1c on study day 21 and oral glucose tolerance was assessed in the 4th week. Oral glucose tolerance test was done in the morning without prior extra compound administration to majorly assess the effect of chronic treatment and less of acute compound administration. Mice were fasted for 4 hours prior to oral glucose administration (2 g/kg, t=0 min). Blood samples were drawn prior to glucose administration and at 15, 30, 60, 90, 120, and 180 min thereafter. Feed was returned after the last blood sampling. Results are represented as change from baseline, glucose in mmol/l and HbA1c in %.
Statistical analyses are performed with Everstat Version 6.0 based on SAS by 1-way-ANOVA, followed by Dunnett's post-hoc test against vehicle-control. Differences are considered statistically significant at the p<0.05 level.
Female dbdb-mice, received 3 and 10 μg/kg of SEQ ID NO: 16 and 10 μg/kg of SEQ ID NO: 21 or phosphate buffered saline (vehicle control) once daily, subcutaneously over four weeks.

Compound	Cmax [1]	half-life [1]	Stability (pH 4.5) ([2]; pH 4.5)	Stability (pH 7.4) ([2]; pH 7.4)	maximal effect on glucose, change from baseline [3]	EC50 [4]	solubility at 2 h ([5]; pH 4.5)	solubility at 2 h ([5]; pH 7.4)	oral glucose tolerance ([6]; once daily s.c., oral glucose 2 g/kg in the 4th week)	reduction of AUC under the glucose curve compared to vehicle control ([6]; oral glucose tolerance test, p<0.05)
CCCCCCCCCCCCCCCCCC(=O)N[C@@H](CCC(=O)NCCCC[C@H](NC(=O)[C@H](CCC(N)=O)NC(=O)[C@@H](NC(=O)[C@H](CO)NC(=O)[C@H](CC(C)C)NC(=O)[C@H](CC(=O)O)NC(=O)[C@H](CO)NC(=O)[C@@H](NC(=O)[C@H](Cc1ccccc1)NC(=O)[C@@H](NC(=O)CNC(=O)[C@H](CCC(=O)O)NC(=O)C(C)(C)NC(=O)[C@@H](N)Cc1ccc(O)cc1)[C@@H](C)O)[C@@H](C)O)[C@@H](C)CC)C(=O)N[C@@H](CCC(=O)O)C(=O)N[C@@H](CCCCN)C(=O)N[C@@H](CCCNC(=N)N)C(=O)N[C@@H](C)C(=O)N[C@@H](C)C(=O)N[C@@H](CCC(N)=O)C(=O)N[C@@H](CCC(=O)O)C(=O)N[C@@H](Cc1ccccc1)C(=O)N[C@H](C(=O)N[C@@H](CCC(=O)O)C(=O)N[C@@H](Cc1c[nH]c2ccccc12)C(=O)N[C@@H](CC(C)C)C(=O)N[C@@H](CCCCN)C(=O)N[C@@H](C)C(=O)NCC(=O)NCC(=O)N1CCC[C@H]1C(=O)N[C@@H](CO)C(=O)N[C@@H](CO)C(=O)NCC(=O)N[C@@H](C)C(=O)N1CCC[C@H]1C(=O)N1CCC[C@H]1C(=O)N1CCC[C@H]1C(=O)N[C@@H](CO)C(N)=O)[C@@H](C)CC)C(=O)O [SEQ ID NO: 14, Y-Aib-E-G-T-F-T-S-D-L-S-I-Q-K(γE-x70)-EKRAAQEFIEWLKAGGPSSGAPPPS-NH2] (H-Y[Aib]EGTFTSDLSIQK([γGlu-Stearoyl])EKRAAQEFIEWLKAGGPSSGAPPPS-NH2)	5340 ng/mL	2.8 h	96.0%	94.0%	-8 mmol/L	4.3 pM	> 1000 µg/mL	> 1000 µg/mL		
CCCCCCCCCCCCCCCCCC(=O)N[C@@H](CCC(=O)N[C@@H](CCC(=O)NCCCC[C@H](NC(=O)[C@H](CCC(N)=O)NC(=O)[C@@H](NC(=O)[C@H](CO)NC(=O)[C@H](CC(C)C)NC(=O)[C@H](CC(=O)O)NC(=O)[C@H](CO)NC(=O)[C@@H](NC(=O)[C@H](Cc1ccccc1)NC(=O)[C@@H](NC(=O)CNC(=O)[C@H](CCC(=O)O)NC(=O)C(C)(C)NC(=O)[C@@H](N)Cc1ccc(O)cc1)[C@@H](C)O)[C@@H](C)O)[C@@H](C)CC)C(=O)N[C@@H](CCC(=O)O)C(=O)N[C@@H](CCCCN)C(=O)N[C@@H](CCCNC(=N)N)C(=O)N[C@@H](C)C(=O)N[C@@H](C)C(=O)NC(C)(C)C(=O)N[C@@H](CCC(=O)O)C(=O)N[C@@H](Cc1ccccc1)C(=O)N[C@H](C(=O)N[C@@H](CCC(=O)O)C(=O)N[C@@H](Cc1c[nH]c2ccccc12)C(=O)N[C@@H](CC(C)C)C(=O)N[C@@H](CCCCN)C(=O)N[C@@H](CC(N)=O)C(=O)N[C@H](C(=O)NCC(=O)N1CCC[C@H]1C(=O)N[C@@H](CO)C(=O)N[C@@H](CO)C(=O)NCC(=O)N[C@@H](C)C(=O)N1CCC[C@H]1C(=O)N1CCC[C@H]1C(=O)N1CCC[C@H]1C(=O)N[C@@H](CO)C(N)=O)[C@@H](C)O)[C@@H](C)CC)C(=O)O)C(=O)O [SEQ ID NO: 16, Y-Aib-E-G-T-F-T-S-D-L-S-I-Q-K(γE-γE-x70)-E-K-R-A-A-Aib-E-F-I-E-W-L-K-N-T-G-P-S-S-G-A-P-P-P-S-NH2] (H-Y[Aib]EGTFTSDLSIQK([γGlu-γGlu-Stearoyl])EKRAA[Aib]EFIEWLKNTGPSSGAPPPS-NH2)	3460 ng/mL	5.3 h				4 pM			improved oral glucose tolerance	reached statistical significance
